ChEMBL document CHEMBL1201862, “PubChem BioAssay data set” (2004)
Calls of active or inactive are those of the source.

Columns and labels:
[1] = biological target: Peroxisome proliferator-activated receptor gamma/Nuclear receptor coactivator 1 (Homo sapiens, UniProt P37231); test: (§1) TR-FRET dose response biochemical High Throughput Screening assay for agonists of the steroid receptor coactivator 1 (SRC-1) recruitment by the peroxisome proliferator-activated receptor gamma (PPAR gamma): non-selective agonists. [Related pubchem assays (depositor defined):AID1300, AID1808, AID504735, AID631]; type: protein assay
Fibrinogen beta chain [2] = biological target: T1, Fibrinogen beta chain (Homo sapiens, UniProt P02675); test: Fluorescence polarization-based biochemical high throughput dose response assay to identify inhibitors that disrupt the binding of a cyclic peptide (Tn7) to the fibrin proteolytic product D-Dimer and fragment E complex [DD(E )].
[3] = biological target: T2, Polyadenylate-binding protein 1 (Homo sapiens, UniProt P11940); test: MLLE domain peptide-binding blockers, IC50 – biochemical, fluorescence polarization, FITC-PAM2 peptide, dose response (AID 602259); type: functional; conditions: read-out: IC50_Mean
[4] = biological target: Peroxisome proliferator-activated receptor gamma/Nuclear receptor coactivator 3 (Homo sapiens, UniProt P37231); test: as §1, with “3 (SRC-3)” for “1 (SRC-1)”, “assays: 1301 (Confirmation screen.), 1048 (Primary screen.)]” for “assays (depositor defined):AID1300, AID1808, AID504735, AID631]”; type: functional
[5] = biological target: Peroxisome proliferator-activated receptor gamma/Nuclear receptor coactivator 2 (Homo sapiens, UniProt P37231); test: TR-FRET dose response biochemical High Throughput Screening assay for agonists of the steroid receptor coactivator 2 (SRC-2) recruitment by the peroxisome proliferator-activated receptor gamma (PPAR gamma): non-selective agonists. [Related pubchem assays: 1297, 1032 ]; type: functional
[6] = biological target: T2, Polyadenylate-binding protein 1; test: MLLE binding blockers, Cy5 peptide tracer – biochemical, fluorescence polarization, Cy5-PAM2 peptide, secondary, miRNA deadenylation inhibitor project, dose response (AID 602260); type: functional; conditions: read-out: IC50_Mean
Fibrinogen beta chain [7] = biological target: T1, Fibrinogen beta chain; test: Fluorescence polarization-based biochemical high throughput dose response assay to identify inhibitors that disrupt the binding of a cyclic peptide (Tn6) to the fibrin proteolytic product D-Dimer and fragment E complex [DD(E )].
[8] = biological target: Bifunctional protein GlmU (Mycobacterium tuberculosis, UniProt P9WMN3); test: Inhibitors of Mycobacterial Glucosamine-1-phosphate acetyl transferase (GlmU). Secondary screen.; set-up: species or system Mycobacterium tuberculosis H37Rv
[9] = Luminescence Cell-Based Dose Confirmation HTS to Identify Inhibitors of Platelet Dense Granule Release. [Related pubchem assays: 1663 (Primary HTS), 1678 (Summary of Project)]; type: functional
[10] = alpha-synuclein stem-loop luciferase translation blockers – H4 neuroglioma cells, luminescence, confirmation (AID 1988); type: functional, cell-based
[11] = Luminescence Cell-Based Dose Response HTS to Identify Inhibitors of 5'UTR Stem-Loop Driven Prion Protein mRNA Translation in H4 Neuroglioblastoma Cells. [Related pubchem assays: 1827 (Project Summary), 1813 (Primary HTS)]; type: functional
[12] = biological target: Luciferin 4-monooxygenase (Photinus pyralis, UniProt P08659); test: inhibition of purified Photinus pyralis luciferase – biochemical, luminescence, dose response (AID 1891)
[13] = biological target: Oxysterols receptor LXR-beta (Homo sapiens, UniProt P55055); type: functional, cell-based;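 further: Cell-based luminescence dose-response assay of agonist activity at LXR, run as a confirmatory counterscreen to a daf-12 agonist screen; HEK293 cells with Gal4-LXR fusion and GAL4-driven luciferase reporter; agonist potency from rising luciferase signal of a Gal4-LXR reporter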
[14] = Trypanosoma cruzi growth suppression in host cells – NIH3T3 host cells, beta-gal luminescence, confirmation (AID 2044); type: functional, cell-based;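 further: intracellular parasites grown in NIH/3T3 mouse fibroblasts as host cells; luminescent beta-galactosidase reporter signal from transgenic T. cruzi replicating inside host cells; inhibitors lower the luminescence signal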
[15] = biological target: T3, Alkaline phosphatase, tissue-nonspecific isozyme (Homo sapiens, UniProt P05186); test: potency against alkaline phosphatase TNAP – biochemical, luminescent, dose response, SAR follow-up (AID 1056)
T3 sequence (P05186 whole entry): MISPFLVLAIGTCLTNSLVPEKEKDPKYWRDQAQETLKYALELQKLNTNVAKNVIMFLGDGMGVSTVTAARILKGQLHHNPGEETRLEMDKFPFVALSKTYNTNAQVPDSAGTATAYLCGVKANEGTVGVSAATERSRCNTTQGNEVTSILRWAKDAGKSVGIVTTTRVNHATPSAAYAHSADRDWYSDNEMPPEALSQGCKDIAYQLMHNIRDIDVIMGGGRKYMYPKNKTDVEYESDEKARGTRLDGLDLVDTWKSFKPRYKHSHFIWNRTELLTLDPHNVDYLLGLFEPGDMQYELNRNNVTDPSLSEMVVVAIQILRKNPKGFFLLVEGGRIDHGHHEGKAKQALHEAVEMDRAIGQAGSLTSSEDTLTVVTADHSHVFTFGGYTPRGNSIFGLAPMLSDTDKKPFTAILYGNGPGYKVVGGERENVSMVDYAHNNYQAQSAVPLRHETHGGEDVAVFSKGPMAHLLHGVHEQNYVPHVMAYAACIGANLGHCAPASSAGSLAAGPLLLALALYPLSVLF

[16] = biological target: Alkaline phosphatase, placental type (Homo sapiens, UniProt P05187); test: human placental alkaline phosphatase inhibition – biochemical, luminescence, confirmation (AID 1512); type: functional
[17] = luciferase reporter signal suppression in cells – H4 neuroglioma cells, luminescence, dose response (AID 1990); type: functional, cell-based
[18] = biological target: Glutathione-S-transferase (Schistosoma japonicum, UniProt Q26513); test: GST-antibody interaction or FRET quenching – biochemical, TR-FRET, artefact control for Vif-APOBEC3G degradation inhibitor project, dose response (AID 1117362); type: functional
[19] = biological target: Eukaryotic translation initiation factor 4E (Mus musculus, UniProt P63073); test: blockers of eIF4G binding by eIF4E – biochemical, TR-FRET, dose response (AID 855); type: functional;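 further: potency for disrupting eIF4E binding to eIF4GI seen as loss of FRET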
[20] = DRD fibroblast viability loss – cell-based, non-viral oncogenic, luminescence, dose response (AID 1934); type: functional; conditions: Homo sapiens
[21] = toxicity toward HEK293 cells – cell-based, dry powder samples, cytotoxicity control, dose response (AID 720567); type: functional
BJ [22] = test: cells; type: functional, cell-based; conditions: Homo sapiens
BJ [23] = test: BJ-TERT-LT-ST fibroblast viability loss – cell-based, RAS-independent, luminescence, dose response (AID 1935); type: functional; conditions: Homo sapiens;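 further: BJ fibroblasts immortalized with TERT plus LT and ST oncogenes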
BJ [24] = test: BJ-TERT fibroblast viability loss – cell-based, RAS-independent, luminescence, dose response (AID 1933); type: functional; conditions: Homo sapiens
[25] = Potency on glucagon-like peptide 1 release, dose-response in NCI-H716 cell line, half maximal inhibitory concentration (AID 1117344); type: functional, cell-based
[26] = glucagon-like peptide-1 release potency in STC-1, concentration-response, half-maximal inhibitory concentration in the STC-1 line (AID 1117345); type: functional, cell-based
[27] = biological target: NAD-dependent protein deacylase sirtuin-5, mitochondrial (Homo sapiens, UniProt Q9NXA8); test: sirtuin-5 deacylation blockers, concentration series – biochemical, fluorescence imaging, cherry-pick, set 5, dose response (AID 720591);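 further: desuccinylation of succinyl peptide AMC substrate read as fluorescence after trypsin release; potency of inhibitors that lower fluorescence and may act on trypsin instead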
Sequence of NAD-dependent protein deacylase sirtuin-5, mitochondrial (Q9NXA8 whole entry): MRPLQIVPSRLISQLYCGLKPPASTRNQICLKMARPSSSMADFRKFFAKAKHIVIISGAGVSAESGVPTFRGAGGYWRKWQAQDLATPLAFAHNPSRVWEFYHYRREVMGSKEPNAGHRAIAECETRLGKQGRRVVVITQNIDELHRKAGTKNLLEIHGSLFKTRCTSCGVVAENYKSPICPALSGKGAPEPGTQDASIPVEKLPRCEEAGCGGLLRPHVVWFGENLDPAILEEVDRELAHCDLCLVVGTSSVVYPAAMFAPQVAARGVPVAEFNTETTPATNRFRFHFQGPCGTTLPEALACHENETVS

T2 sequence (P11940 whole entry, the tested form may be a part): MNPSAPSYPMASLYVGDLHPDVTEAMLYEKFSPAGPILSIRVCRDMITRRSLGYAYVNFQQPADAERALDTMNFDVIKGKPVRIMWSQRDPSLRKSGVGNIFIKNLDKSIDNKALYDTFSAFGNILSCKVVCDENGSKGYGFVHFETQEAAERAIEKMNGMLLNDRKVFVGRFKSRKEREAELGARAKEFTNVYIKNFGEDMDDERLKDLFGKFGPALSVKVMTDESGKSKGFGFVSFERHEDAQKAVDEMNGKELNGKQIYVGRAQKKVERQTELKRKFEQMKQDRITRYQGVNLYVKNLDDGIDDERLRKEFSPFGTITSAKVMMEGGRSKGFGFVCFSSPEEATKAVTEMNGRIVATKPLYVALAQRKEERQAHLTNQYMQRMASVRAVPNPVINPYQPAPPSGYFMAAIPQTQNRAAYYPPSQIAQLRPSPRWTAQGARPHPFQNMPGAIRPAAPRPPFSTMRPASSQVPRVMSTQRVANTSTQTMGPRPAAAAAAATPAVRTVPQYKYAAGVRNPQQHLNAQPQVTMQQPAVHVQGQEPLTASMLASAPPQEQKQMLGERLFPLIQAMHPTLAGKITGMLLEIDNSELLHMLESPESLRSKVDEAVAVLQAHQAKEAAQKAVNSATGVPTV
T1 sequence (P02675 whole entry, the tested form may be a part): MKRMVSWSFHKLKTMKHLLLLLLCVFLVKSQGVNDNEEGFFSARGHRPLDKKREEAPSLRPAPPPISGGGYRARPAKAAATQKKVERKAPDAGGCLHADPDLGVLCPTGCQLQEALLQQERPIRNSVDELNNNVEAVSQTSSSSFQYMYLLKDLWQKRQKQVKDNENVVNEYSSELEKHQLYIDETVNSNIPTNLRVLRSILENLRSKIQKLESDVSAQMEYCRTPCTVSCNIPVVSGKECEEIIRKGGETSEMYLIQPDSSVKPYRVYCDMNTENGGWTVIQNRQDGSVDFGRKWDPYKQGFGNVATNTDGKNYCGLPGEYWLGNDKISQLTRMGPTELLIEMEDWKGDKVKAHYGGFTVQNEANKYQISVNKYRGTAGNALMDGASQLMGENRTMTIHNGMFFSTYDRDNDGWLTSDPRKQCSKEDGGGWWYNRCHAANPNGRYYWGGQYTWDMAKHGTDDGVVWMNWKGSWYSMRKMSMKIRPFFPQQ
Sequence of Glutathione-S-transferase (Q26513 whole entry): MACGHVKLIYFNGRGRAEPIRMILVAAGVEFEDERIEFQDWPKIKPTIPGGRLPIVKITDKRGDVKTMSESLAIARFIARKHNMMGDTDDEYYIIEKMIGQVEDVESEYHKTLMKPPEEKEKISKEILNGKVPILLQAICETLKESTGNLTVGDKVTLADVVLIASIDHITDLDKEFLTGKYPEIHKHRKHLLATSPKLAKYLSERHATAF
Sequence of Eukaryotic translation initiation factor 4E (P63073 whole entry): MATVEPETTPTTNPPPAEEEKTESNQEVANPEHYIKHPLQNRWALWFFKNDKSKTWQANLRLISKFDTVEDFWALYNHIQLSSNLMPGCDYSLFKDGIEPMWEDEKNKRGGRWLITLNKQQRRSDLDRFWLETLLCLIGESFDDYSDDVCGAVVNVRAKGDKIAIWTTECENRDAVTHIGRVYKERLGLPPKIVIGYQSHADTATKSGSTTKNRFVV
Sequence of Oxysterols receptor LXR-beta (P55055 whole entry, the tested form may be a part): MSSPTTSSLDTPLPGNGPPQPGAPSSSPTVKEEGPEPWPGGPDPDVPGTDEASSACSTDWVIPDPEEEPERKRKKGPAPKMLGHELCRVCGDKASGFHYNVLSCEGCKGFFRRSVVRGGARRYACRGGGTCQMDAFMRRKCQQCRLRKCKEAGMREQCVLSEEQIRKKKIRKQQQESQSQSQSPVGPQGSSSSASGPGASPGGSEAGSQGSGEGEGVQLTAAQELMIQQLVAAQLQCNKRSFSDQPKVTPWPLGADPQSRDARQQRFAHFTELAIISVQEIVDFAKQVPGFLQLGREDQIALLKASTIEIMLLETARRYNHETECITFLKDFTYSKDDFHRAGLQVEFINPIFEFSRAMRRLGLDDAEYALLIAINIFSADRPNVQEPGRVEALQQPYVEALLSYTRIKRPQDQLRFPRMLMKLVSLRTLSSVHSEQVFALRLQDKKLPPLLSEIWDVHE
Sequence of Alkaline phosphatase, placental type (P05187 whole entry): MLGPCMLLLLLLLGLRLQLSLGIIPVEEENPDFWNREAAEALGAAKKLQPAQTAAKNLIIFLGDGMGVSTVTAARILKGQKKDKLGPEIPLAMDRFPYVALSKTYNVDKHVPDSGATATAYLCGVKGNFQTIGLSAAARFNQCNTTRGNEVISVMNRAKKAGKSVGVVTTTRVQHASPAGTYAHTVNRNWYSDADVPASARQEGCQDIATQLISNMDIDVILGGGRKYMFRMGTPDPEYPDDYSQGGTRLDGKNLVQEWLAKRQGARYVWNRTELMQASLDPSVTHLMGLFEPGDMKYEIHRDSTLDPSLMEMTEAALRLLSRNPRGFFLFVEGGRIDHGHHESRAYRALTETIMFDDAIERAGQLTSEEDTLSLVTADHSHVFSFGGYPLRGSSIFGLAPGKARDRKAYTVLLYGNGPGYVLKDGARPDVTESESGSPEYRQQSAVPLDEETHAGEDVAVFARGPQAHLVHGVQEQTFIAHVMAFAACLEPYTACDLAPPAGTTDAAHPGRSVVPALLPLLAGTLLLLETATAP
Sequence of Luciferin 4-monooxygenase (P08659 whole entry, the tested form may be a part): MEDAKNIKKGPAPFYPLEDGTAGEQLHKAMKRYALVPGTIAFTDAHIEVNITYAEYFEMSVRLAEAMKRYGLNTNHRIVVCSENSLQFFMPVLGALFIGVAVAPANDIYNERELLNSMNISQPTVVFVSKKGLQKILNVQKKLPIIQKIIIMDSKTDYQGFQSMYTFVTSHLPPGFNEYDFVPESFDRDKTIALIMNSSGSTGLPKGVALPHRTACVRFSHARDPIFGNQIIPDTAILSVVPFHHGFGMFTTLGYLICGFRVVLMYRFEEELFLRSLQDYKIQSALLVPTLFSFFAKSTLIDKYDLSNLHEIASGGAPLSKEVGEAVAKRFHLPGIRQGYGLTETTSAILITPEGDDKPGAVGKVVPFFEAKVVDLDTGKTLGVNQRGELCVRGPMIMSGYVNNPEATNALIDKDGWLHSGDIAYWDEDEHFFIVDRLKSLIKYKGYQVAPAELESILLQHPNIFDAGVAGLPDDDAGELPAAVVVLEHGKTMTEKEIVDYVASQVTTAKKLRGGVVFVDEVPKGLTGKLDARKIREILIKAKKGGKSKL
Sequence of Bifunctional protein GlmU (P9WMN3 whole entry): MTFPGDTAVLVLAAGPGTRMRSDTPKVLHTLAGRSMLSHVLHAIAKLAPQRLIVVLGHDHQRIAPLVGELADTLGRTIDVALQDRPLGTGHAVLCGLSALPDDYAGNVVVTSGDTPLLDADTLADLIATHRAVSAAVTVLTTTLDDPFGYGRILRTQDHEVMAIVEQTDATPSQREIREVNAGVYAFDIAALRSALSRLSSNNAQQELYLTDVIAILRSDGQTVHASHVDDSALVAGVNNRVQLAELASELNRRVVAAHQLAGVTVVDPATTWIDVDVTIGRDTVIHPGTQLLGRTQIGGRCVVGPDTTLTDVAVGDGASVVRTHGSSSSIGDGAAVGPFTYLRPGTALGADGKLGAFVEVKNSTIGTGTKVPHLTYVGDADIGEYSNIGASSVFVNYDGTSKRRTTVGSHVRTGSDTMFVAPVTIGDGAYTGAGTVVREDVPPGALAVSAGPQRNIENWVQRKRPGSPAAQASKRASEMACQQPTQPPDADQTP

Cc1cc2cc(CNC(=O)c3ccc(S(=O)(=O)N4CCOCC4)cc3)ccc2n1C
EC50 [1]: 6.78 µM (active)
IC50 (Fibrinogen beta chain [2]): > 83.3 µM (inactive)
IC50 [3]: 49.6 µM (inactive)
EC50 [4]: 15.7 µM (not active)
EC50 [5]: 6.71 µM (active)
IC50 [6]: > 66 µM (inactive)
IC50 (Fibrinogen beta chain [7]): 10.6 µM (inactive)

O=S1(=O)c2ccccc2N=NN1Cc1ccc(Cl)c(Cl)c1
IC50 [8]: 38.7 µM (active)

Clc1ccc(/C=C/c2nc3ccccc3[nH]2)c(Cl)c1
EC50 (cells): > 67.5 µM (inactive)
EC50 [9]: 8.31 µM (active)
EC50 [10]: 2.85 µM (inconclusive)
EC50 [11]: 7.08 µM (active)
EC50 [12]: 0.519 µM (active)
EC50 [13]: > 67.5 µM (inactive)
EC50 [14]: 3.15 µM (active)
IC50 [15]: 5.78 µM (active)
IC50 [16]: 2.85 µM (active)
EC50 [17]: 0.55 µM (active)

CN(C)[C@@H]1C(=O)C(C(=O)NCN2CCCC2)=C(O)[C@@]2(O)C(O)=C3C(=O)c4c(O)cccc4[C@@](C)(O)C3CC12 (some centres not stated)
IC50 [18]: > 100 µM (active)
IC50 [19]: 12.3 µM (active)

CCC1=Nc2cc(C(=O)NCCCOC)ccc2Sc2ccccc21
EC50 [20]: 0.944 µM (active)
EC50 [10]: 0.127 µM (active)
EC50 [11]: 16.1 µM (active)
AC50 [21]: 9.95 µM (active)
EC50 [14]: 5.01 µM (active)
EC50 (BJ [22]): 13.2 µM (active)
EC50 (BJ [23]): 0.754 µM (inconclusive)
EC50 [17]: 8.66 µM (inconclusive)
EC50 (BJ [24]): 1.07 µM (active)

c1ccc2ccccc2c1
IC50 [25]: 20.8 µM (inactive)
IC50 [26]: > 40 µM (inactive)

Cc1ccc(S(=O)(=O)N2[C@@H](c3ccccc3)C(C(=O)O)=CC[C@H]2c2ccc(Cl)cc2)cc1
AC50 [27]: > 30 µM (inactive)
